Among the data in patent publication US20260109689A1, “NOVEL COMPOUNDS” (Hoffmann-La Roche Inc., priority 2023, published 2026) are efflux ratio, Papp and IC20 values, retold here.

For one series, the system named is mouse P-gp. Nature of the series: Transcellular P-gp assay (mouse P-gp). It is filed as in vitro ADME. The conditions noted are these: LLC-PK1, first value of cell, transfected LLC-PK cells; for efflux ratio: read-out: Apical Efflux Ratio; for Papp: read-out: Permeability. The source says:
(§1) The general assay uses transfected LLC-PKT cells (porcine kidney epithelial cells) over-expressing human or mouse P-gp, cultured on 96 well semi-permeable filter membrane plates, where they form a polarized monolayer with tight junctions, and act as a barrier between the apical and basolateral compartment.
(§2) P-gp is expressed in the apical-facing membrane of the monolayer.
(§3) The tightness of the cell monolayer and functional activity of P-gp are confirmed by addition of a cell-impermeable marker, Lucifer yellow, and a reference P-gp substrate, edoxaban, respectively.

Series [1] deals with T1, hERG cardiac potassium channel (Homo sapiens, UniProt Q12809).
T1 construct: Evotec (cryopreserved cells) ATCC PTA-6812; host or cells: CHO crelox hERG cell line (Chinese hamster)
Nature of the series: hERG screening assay (automated patch clamp). Type of series: cell-based. The conditions noted are these: CHO crelox hERG cells, whole-cell patch clamp, 35-37° C. The source says: In the drug development process of small molecules, one of the most frequent adverse side effects, leading to the failure of drugs, is the cardiac arrhythmias. Such failure is often related to the capacity of the drug to inhibit the human ether-a-go-go-related gene (hERG) cardiac potassium channel. Having no or low inhibition of the hERG cardiac potassium channel is therefore considered as beneficial.
The CHO crelox hERG cell line (ATCC reference Nr. PTA-6812, female Chinese hamster cells) was generated and validated at Roche. Ready-to-use frozen instant CHO-hERG cells were cryopreserved at Evotec (Germany) and used directly in the experiments.
The extracellular solution contains (in mM): NaCl 150; KCl 4; CaCl2 1; MgCl2 1; HEPES 10; pH 7.2-7.4 with NaOH, osmolarity 290-330 mOsm. […]
The effects of a compound on hERG K+-currents parameters will be evaluated at 2 concentrations in at least 4 cells.
The hERG test is performed using automated patch clamp system SynchroPatch® 384 (Nanion Technologies GmbH, Germany). K+ currents are measured with the patch-voltage-clamp technique in the whole-cell configuration at 35-37° C. […]
The amplitudes of IKhERG were recorded in each concentration of drug and they were compared to the vehicle control values (taken as 100%) to define fractional blocks. […]

A further series concerns the target T2, human P-gp (Homo sapiens, UniProt P08183).
T2 construct: expressed in transfected cells; host or cells: LLC-PKT (so in the source) porcine kidney epithelial cells
Nature of the series: Transcellular P-gp assay (human P-gp). It is filed as in vitro ADME. The conditions noted are these: LLC-PK1, second value of cell, transfected LLC-PK cells; for efflux ratio: read-out: Apical Efflux Ratio; for Papp: read-out: Permeability.
Excerpt: as §1, §2, §3

Where only a bound is given, the exact number is not on record here.

T2 sequence (P08183 whole entry): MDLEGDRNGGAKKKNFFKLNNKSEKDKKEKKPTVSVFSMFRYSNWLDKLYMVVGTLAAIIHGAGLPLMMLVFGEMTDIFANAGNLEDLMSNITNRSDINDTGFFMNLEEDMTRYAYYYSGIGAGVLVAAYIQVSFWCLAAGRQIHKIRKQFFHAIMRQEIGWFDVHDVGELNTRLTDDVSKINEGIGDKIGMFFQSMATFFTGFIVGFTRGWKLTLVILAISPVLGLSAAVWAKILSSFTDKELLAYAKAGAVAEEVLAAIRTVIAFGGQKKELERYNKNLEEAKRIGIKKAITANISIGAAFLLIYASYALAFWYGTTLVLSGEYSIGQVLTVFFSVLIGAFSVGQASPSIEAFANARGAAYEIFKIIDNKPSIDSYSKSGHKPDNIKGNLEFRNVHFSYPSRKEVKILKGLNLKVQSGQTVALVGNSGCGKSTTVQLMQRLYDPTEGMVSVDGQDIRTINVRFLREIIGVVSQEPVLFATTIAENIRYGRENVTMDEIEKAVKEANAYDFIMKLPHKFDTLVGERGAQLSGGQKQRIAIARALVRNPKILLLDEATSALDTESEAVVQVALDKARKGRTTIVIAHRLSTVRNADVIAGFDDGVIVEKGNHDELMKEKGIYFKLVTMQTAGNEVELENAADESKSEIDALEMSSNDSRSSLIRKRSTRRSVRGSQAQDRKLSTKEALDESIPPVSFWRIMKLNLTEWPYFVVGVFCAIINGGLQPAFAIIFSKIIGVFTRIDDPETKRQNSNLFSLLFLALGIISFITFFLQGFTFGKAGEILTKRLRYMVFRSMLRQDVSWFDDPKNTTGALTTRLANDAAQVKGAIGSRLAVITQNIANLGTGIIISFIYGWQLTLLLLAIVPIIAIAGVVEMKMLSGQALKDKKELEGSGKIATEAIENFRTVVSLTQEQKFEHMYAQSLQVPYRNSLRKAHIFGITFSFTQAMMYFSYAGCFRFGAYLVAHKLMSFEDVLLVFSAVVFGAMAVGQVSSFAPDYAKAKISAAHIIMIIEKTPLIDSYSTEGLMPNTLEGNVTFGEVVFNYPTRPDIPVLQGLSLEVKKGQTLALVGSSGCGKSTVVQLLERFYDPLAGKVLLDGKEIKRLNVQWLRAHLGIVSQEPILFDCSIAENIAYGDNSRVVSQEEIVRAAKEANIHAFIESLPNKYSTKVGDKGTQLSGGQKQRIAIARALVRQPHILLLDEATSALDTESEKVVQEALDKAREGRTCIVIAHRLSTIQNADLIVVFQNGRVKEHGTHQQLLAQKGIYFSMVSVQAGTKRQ
T1 sequence (Q12809 whole entry): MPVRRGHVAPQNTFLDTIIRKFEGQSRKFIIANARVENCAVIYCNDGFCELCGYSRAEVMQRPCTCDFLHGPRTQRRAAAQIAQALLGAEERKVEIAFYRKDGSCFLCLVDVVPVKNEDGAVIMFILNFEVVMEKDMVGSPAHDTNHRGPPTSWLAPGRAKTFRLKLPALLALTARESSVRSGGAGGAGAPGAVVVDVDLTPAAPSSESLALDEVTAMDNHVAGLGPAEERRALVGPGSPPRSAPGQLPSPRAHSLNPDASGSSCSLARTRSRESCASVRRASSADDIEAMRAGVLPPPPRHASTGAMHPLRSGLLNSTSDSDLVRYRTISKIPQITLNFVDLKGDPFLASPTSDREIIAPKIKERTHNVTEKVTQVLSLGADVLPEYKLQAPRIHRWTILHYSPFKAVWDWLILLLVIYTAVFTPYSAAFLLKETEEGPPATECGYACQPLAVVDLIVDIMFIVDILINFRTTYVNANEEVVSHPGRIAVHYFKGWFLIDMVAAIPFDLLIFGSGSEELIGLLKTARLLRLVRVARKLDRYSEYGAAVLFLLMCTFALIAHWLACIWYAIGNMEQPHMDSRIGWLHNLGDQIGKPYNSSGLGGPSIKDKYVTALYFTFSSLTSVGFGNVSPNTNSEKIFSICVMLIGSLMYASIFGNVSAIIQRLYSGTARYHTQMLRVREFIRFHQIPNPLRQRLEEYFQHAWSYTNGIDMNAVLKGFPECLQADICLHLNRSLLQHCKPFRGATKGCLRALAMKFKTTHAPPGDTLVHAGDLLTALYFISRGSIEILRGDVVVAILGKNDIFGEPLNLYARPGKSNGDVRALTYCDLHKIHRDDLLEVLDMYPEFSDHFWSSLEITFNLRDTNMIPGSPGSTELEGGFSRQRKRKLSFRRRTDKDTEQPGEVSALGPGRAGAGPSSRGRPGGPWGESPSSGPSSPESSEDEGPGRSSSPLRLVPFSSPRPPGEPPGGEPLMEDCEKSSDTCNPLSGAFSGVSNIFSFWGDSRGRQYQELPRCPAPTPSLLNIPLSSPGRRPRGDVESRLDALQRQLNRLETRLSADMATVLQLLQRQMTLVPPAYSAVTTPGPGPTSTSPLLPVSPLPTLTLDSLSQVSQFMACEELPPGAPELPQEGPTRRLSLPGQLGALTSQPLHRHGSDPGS

For the molecule `Cn1c(-c2ccc3c(c2O)CCO3)nnc(N[C@@H]2CCCN(CCO)C2)c1=O` [Example 1, 3-(4-Hydroxy-2,3-dihydrobenzofuran-5-yl)-6-[[(3R)-1-(2-hydroxyethyl)-3-piperidyl]amino]-4-methyl-1,2,4-triazin-5-one], the efflux ratio was found to be 8.6 with mouse P-gp and 4.8 at human P-gp. For the same molecule, the Papp in the series with mouse P-gp and at human P-gp was 4.7 ×10⁻⁶ cm/s throughout. The molecule further returned an IC20 in series [1] of more than 10 µM.

`CCN1CCC[C@@H](Nc2nnc(-c3ccc4c(c3O)CCO4)n(C)c2=O)C1` [RE-A, 6-[[(3R)-1-Ethyl-3-piperidyl]amino]-3-(4-hydroxy-2,3-dihydrobenzofuran-5-yl)-4-methyl-1,2,4-triazin-5-one, reference compound]: in the series with mouse P-gp, the efflux ratio was found to be 2 and the Papp worked out at 23.2 ×10⁻⁶ cm/s. Further, on human P-gp, the efflux ratio stood at 1.2 and the Papp came out at 25 ×10⁻⁶ cm/s.

As for `Cn1c(-c2ccc3c(c2O)CCC3)nnc(N[C@@H]2CCCN(CCO)C2)c1=O` [Example 2, 6-[[(3R)-1-(2-Hydroxyethyl)-3-piperidyl]amino]-3-(4-hydroxyindan-5-yl)-4-methyl-1,2,4-triazin-5-one], in the series on mouse P-gp, the efflux ratio worked out at 10 and the Papp turned out to be 17 ×10⁻⁶ cm/s. This molecule also showed an IC20 in series [1] of more than 10 µM. Further, on human P-gp, the efflux ratio stood at 4.8 and the Papp worked out at 19 ×10⁻⁶ cm/s.
